# Measured values: patent US20240165196A1, “Beta-Lactamase Inhibitors” (VIB VZW, priority 2021, published 2024)
# What was measured:
# [1] = test system: E. coli strain lacking TEM (ATCC 25922); test: Structured Illumination Microscopy of peptide-treated bacteria lacking TEM; assay type: cell-based; conditions: same treatment as UZ_TEM104
# Procedure: FIGS. 3A-3P. […] Three replicates are shown for each condition. […] A single representative image is shown. […] Three replicates are shown for each condition. (FIG. 3E) [Left] […] [Middle] […] [Right] […] A single representative image is shown. […] A single representative image is shown. […] A single representative image is shown. […] A single representative blot is shown. […] 106 cells were analysed for the plot.
# Moreover, we confirmed the presence of the protein in the correct band using mass spectrometry proteomics. We repeated this with a strain expressing SHV-154, blotting with a polyclonal rabbit antibody raised against the recombinant SHV enzyme described above (FIG. 3K).
# The bacterial cultures were washed with PBS and the number of the bacteria were adjusted to 10^8-10^9 cells/mL. […] Then, cells were treated with LCO dyes (pFTAA; Amytacker™ 680 or Amytacker™ 545: final concentration of 0.5 μM; Ebba Biotech, Sweden) for at least 90 min. The absorption, emission and excitation spectra for each dye were measured based on the standard Ebbabiotec advice (ebbabiotech.com).
# Bacteria were fixed by adding 2.5% paraformaldehyde and 0.04% glutaraldehyde (final concentrations) to the culture media, followed by incubation at room temperature for 15 mins and 30 mins on ice. Bacteria were then washed in PBS and resuspended in GTE buffer (50 mM glucose, 25 mM Tris, and 10 mM EDTA, pH 8.0). […]
# [2] = target: T1, recombinantly purified TEM-1 (Escherichia coli, UniProt P62593); assay type: biochemical, E. coli; conditions: thioflavin-T aggregation assay
# T1 construct: DNA TEM (870 bp) or SHV (894 bp) were each sub-cloned into a PUC57 vector cloning site NdeI/XhoI; His-tag (N); TEV cleavage site (N); made in house; host or cells: E. coli BL21 (DE3)
# T1 sequence (P62593 24-286 limits assumed): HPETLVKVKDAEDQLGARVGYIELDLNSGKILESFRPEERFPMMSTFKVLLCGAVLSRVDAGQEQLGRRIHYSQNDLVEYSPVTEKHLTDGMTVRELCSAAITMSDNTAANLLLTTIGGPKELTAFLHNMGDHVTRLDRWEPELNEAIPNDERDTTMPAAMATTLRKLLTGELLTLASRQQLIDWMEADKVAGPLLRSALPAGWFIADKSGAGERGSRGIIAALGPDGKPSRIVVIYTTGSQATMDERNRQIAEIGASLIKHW
# Source text: Three replicates are shown for each condition. […] A single representative image is shown. […] Three replicates are shown for each condition. […] A single representative image is shown. […] A single representative image is shown. […] A single representative image is shown.
# [3] = test system: primary mouse cortical neurons; assay type: cell-based
# [4] = test system: E. coli strains carrying ESBL mutants of TEM; test: checkerboard assay (FICI), TEM3.2 versus ampicillin; assay type: cell-based
# Source text: FIGS. 2A-2M. (FIG. 2A) TEM mutations and their effects on stability (total energy) as predicted by FoldX. […] Dashed line indicates a total energy difference of 0.5 kcal/mol, the FoldX cut-off above which mutations are considered to be destabilizing. (FIG. 2B) Barplot mapping mutations in (FIG. 2A) to the TEM sequence and indicating occurrence. […] The bar heights correspond to the number of times a mutation occurs across different TEM variants (right-hand y-axis). The color coding is identical to that in (FIG. 2A). Red line indicates the TANGO scores (indicated on the left-hand y-axis), with peaks corresponding to APRs. […]
# Moreover, the core sequence of peptide TEM3.0 also occurs in the structurally related SHV β-lactamase (FIG. 2E). […] To quantify the synergy between these four peptides and penicillin G, we performed a so-called checkerboard assay, which allows to compare the activity of two test compounds co-incubated (here peptide and a beta-lactam antibiotic), to their individual activities in isolation. The result from the assay is quantified as the Fractional Inhibitory Concentration Index (FICI), and it is generally accepted that values below 0.5 indicate synergistic effects between the compounds. […] We evaluated the synergy of the peptides with penicillin G in clinical E. coli isolates carrying the TEM (FIG. 2I) or SHV enzymes (FIG. 2J). […]
# NCI-H441 = assay type: cell-based, human
substance,measurement,setting,value
Ac-RLTAFLHNRRPRLTAFLRQRR-NH2 [TEM3.2],inclusion body formation,[1],only very limited inclusion body formation
same,induction of aggregation of recombinantly purified TEM beta-lactamase,[2],potent inducer of the aggregation
same,cytotoxicity (Cell Titer Blue),[3],not cytotoxic
same,synergy with ampicillin (FICI),[4],synergy
same,cytotoxicity (Cell Titer Blue),NCI-H441,not cytotoxic
